{"source": "patent US5386011A", "about": "“Hexapeptide anaphylatoxin-receptor ligands” (priority 1990, dated 1995)", "note": "pKi: −log10 of the molar value. Counter-ions that a name gives are not always drawn. Where a SMILES comes first, the peptide text is derived from it. [ ]: non-standard residue; d: D form. The star is where a group is joined. Phe(4-I) = N[C@@H](Cc1ccc(I)cc1)C(=O)O; d1Nal = N[C@H](Cc1cccc2ccccc12)C(=O)O; NMeF = CN[C@@H](Cc1ccccc1)C(=O)O; Cha = N[C@@H](CC1CCCCC1)C(=O)O; dCha = N[C@H](CC1CCCCC1)C(=O)O; dPhg = N[C@@H](C(=O)O)c1ccccc1; NMe(benzyl) = CN(Cc1ccccc1)*; dNle = CCCC[C@@H](N)C(=O)O; Nle = CCCC[C@H](N)C(=O)O; Tfa = O=C(C(F)(F)F)*", "data": [{"target": "T1, C5a Receptor (Homo sapiens, UniProt P21730)", "T1 construct": "2.5-25 ug/mL of purified PMNL membrane fragments; endogenous in cells; host or cells: PMNL (polymorphonuclear leukocytes), purified membrane fragments", "T1 sequence (P21730 1-350)": "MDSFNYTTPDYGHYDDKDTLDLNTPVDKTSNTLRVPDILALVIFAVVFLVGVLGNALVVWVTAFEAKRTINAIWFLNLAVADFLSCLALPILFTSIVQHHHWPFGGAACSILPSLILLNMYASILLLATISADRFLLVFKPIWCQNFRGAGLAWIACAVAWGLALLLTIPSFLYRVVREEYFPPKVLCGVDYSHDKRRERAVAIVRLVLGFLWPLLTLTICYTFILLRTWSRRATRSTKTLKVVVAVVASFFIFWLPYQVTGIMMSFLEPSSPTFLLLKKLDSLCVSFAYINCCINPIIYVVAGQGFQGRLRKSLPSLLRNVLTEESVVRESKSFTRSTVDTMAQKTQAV", "experiment": "Anaphylatoxin receptor binding Ki determination: inhibition of 125I-C5a binding to purified PMNL membrane fragments", "details": "0.03-1 nM 125I-C5a, 2.5-25 ug/mL purified PMNL membrane fragments, filtration; read-out: Ki (In vitro C5a Receptor Binding Potency)", "experimental": "Specific inhibition of C5a binding activity of representative compounds of the present invention was measured using 0.03-1 nM ^125 I-C5a with 2.5-25 ug/mL of purified PMNL membrane fragments (Borregaard, N.; Heiple, J. M.; Simons, E. R.; and Clark, R. A. J. Cell. Biol. 1983, 97, 52-61.). Free and membrane-bound ligand were separated by filtration.", "values": [{"smiles": "CC(=O)N[C@@H](Cc1ccccc1)C(=O)N[C@@H](CCCCN)C(=O)N[C@@H](C)C(=O)N[C@H](CC1CCCCC1)C(=O)N[C@@H](CC1CCCCC1)C(=O)N[C@H](CCCNC(=N)N)C(=O)O", "note": "[Example 120, N-Acetyl-Phenylalanyl-Lysyl-Alanyl-{(2R)-2-Amino-3-cyclohexylpropanoyl}-{(2S)-2-Amino-3-cyclohexylpropanoyl}-DArginyl-OH] (Ac-FKA[dCha][Cha][dR]-OH)", "pKi": 6.96}, {"smiles": "CC(C)(C)CC(N)C(=O)N[C@@H](CCCCN)C(=O)N1CCC[C@H]1C(=O)N[C@H](CC1CCCCC1)C(=O)N[C@@H](CC1CCCCC1)C(=O)N[C@H](CCCNC(=N)N)C(=O)O", "note": "(mixture of isomers) [Example 6, H-{(R/S)-t-Butylalanyl}-Lysyl-Prolyl-{(2R)-2-Amino-3-cyclohexylproanoyl}-{(2S)-2-Amino-3-cyclohexylpropanoyl}-DArginyl-OH]", "pKi": 7.10}, {"smiles": "C[C@H](NC(=O)[C@H](CCCCN)NC(=O)[C@@H](N)Cc1ccccc1)C(=O)N[C@H](CC1CCCCC1)C(=O)N[C@@H](CC1CCCCC1)C(=O)N[C@H](CCCNC(=N)N)C(=O)O", "note": "[Example 370, H-Phenylalanyl-Lysyl-Alanyl-{(2R)-2-Amino-3-cyclohexylpropanoyl}-{(2S)-2-Amino-3-cyclohexylpropanoyl}-DArginyl-OH] (H-FKA[dCha][Cha][dR]-OH)", "pKi": 7.07}, {"smiles": "CN[C@@H](Cc1ccccc1)C(=O)N[C@@H](CCCCN)C(=O)N1CCC[C@H]1C(=O)N[C@H](CC1CCCCC1)C(=O)N[C@@H](Cc1ccccc1)C(=O)N[C@H](CCCNC(=N)N)C(=O)O", "note": "[Example 128, (N-Methyl) Phenylalanyl-Lysyl-Prolyl-{(2R)-2-Amino-3-cyclohexylpropanoyl}-Phenylalanyl-DArginyl-OH] (H-[NMeF]KP[dCha]F[dR]-OH)", "pKi": 7.41}, {"smiles": "CN[C@@H](Cc1ccccc1)C(=O)N[C@@H](CCCCN)C(=O)N1CCC[C@H]1C(=O)N[C@H](CC1CCCCC1)C(=O)N[C@@H](Cc1ccccc1)C(=O)N[C@H](Cc1ccccc1)C(=O)O", "note": "[Example 212, (N-Methyl)Phenylalanyl-Lysyl-Prolyl-{(2R)-2-Amino-3-cyclohexylpropanoyl}-Phenylalanyl-DPhenylalanyl-OH] (H-[NMeF]KP[dCha]F[dF]-OH)", "pKi": 6.96}, {"smiles": "CN[C@@H](Cc1ccccc1)C(=O)N[C@@H](CCCCN)C(=O)N1CCC[C@H]1C(=O)N[C@H](CC1CCCCC1)C(=O)N[C@@H](CC1CCCCC1)C(=O)N[C@H](CCCNC(=N)N)C(=O)O", "note": "[Example 166, (N-Methyl)Phenylalanyl-Lysyl-Prolyl-{(2R)-2-Amino-3-cyclohexylpropanoyl}-{(2S)-2-Amino-3-cyclohexylpropanoyl}-DArginyl-OH] (H-[NMeF]KP[dCha][Cha][dR]-OH)", "pKi": 7.46}, {"smiles": "CC(C)C[C@H](NC(=O)[C@H](CC1CCCCC1)NC(=O)[C@H](CC1CCCCC1)NC(=O)[C@H](CCCCN)NC(=O)[C@@H](N)Cc1ccc(I)cc1)C(=O)N[C@H](C)C(=O)N[C@@H](CCCNC(=N)N)C(=O)O", "note": "[Example 107, H-(p-Iodo)Phenylalanyl-Lysyl-{(2S)-2-Amino-3-cyclohexylpropanoyl}-{(2S)-2-Amino-3-cyclohexylpropanoyl}-Leucyl-DAlanyl-Arginyl-OH] (H-[Phe(4-I)]K[Cha][Cha]L[dA]R-OH)", "pKi": 5.44}, {"smiles": "CC(C)[C@H](NC(=O)[C@H](CCCCN)NC(=O)[C@@H](N)Cc1ccccc1)C(=O)N[C@H](CC1CCCCC1)C(=O)N[C@@H](CC1CCCCC1)C(=O)N[C@H](CCCNC(=N)N)C(=O)O", "note": "[Example 360, H-Phenylalanyl-Lysyl-Valyl-{(2R)-2-Amino-3-cyclohexylpropanoyl}-{(2S)-2-Amino-3-cyclohexylpropanoyl}-DArginyl-OH] (H-FKV[dCha][Cha][dR]-OH)", "pKi": 7.28}, {"smiles": "CN[C@@H](Cc1ccccc1)C(=O)N[C@@H](CCCCN)C(=O)N1CCC[C@H]1C(=O)N[C@H](CC1CCCCC1)C(=O)N[C@@H](Cc1ccccc1)C(=O)N[C@@H](C(=O)O)c1ccccc1", "note": "[Example 367, (N-Methyl)Phenylalanyl-Lysyl-Prolyl-{(2R)-2-Amino-3-cyclehexylpropanoyl}-Phenylalanyl-{(R)-Phenylglycinyl}-OH] (H-[NMeF]KP[dCha]F[dPhg]-OH)", "pKi": 5.72}, {"smiles": "CN[C@@H](Cc1ccccc1)C(=O)N[C@@H](CCCCN)C(=O)N1CCC[C@H]1C(=O)N[C@H](CC1CCCCC1)C(=O)N[C@@H](CC1CCCCC1)C(=O)N[C@H](CCCNC(=N)N)C(=O)N(C)Cc1ccccc1", "note": "[Example 97, (N-Methyl)Phenylalanyl-Lysyl-Prolyl-{(2R) -2-Amino-3-cyclohexylpropanoyl}-{(2S)-2-Amino-3-cyclohexylpropanoyl}-DArginyl-N-(Methyl)(Benzyl)] (H-[NMeF]KP[dCha][Cha][dR]-{NMe(benzyl)})", "pKi": 6.28}, {"smiles": "N=C(N)NCCC[C@@H](NC(=O)[C@H](CC1CCCCC1)NC(=O)[C@@H](CC1CCCCC1)NC(=O)[C@H](CCCCN)NC(=O)[C@H](CCCCN)NC(=O)[C@@H](N)Cc1ccccc1)C(=O)O", "note": "[Example 58, H-Phenylalanyl-Lysyl-Lysyl-{(2R)-2-Amino-3-cyclohexylpropanoyl}-{(2S)-2-Amino-3-cyclohexylpropanoyl}-DArginyl-OH] (H-FKK[dCha][Cha][dR]-OH)", "pKi": 7.96}, {"smiles": "CN[C@@H](Cc1ccccc1)C(=O)N[C@@H](CCCCN)C(=O)N[C@@H](C)C(=O)N[C@H](CC1CCCCC1)C(=O)N[C@@H](CC1CCCCC1)C(=O)N[C@H](CCCNC(=N)N)C(=O)O", "note": "[Example 152, (N-Methyl)Phenylalanyl-Lysyl-Alanyl-{(2R)-2-Amino-3-cyclohexylpropanoyl}-{(2S)-2-Amino-3-cyclohexylpropanoyl}-DArginyl-OH] (H-[NMeF]KA[dCha][Cha][dR]-OH)", "pKi": 7.08}, {"smiles": "CC(C)C[C@@H](NC(=O)[C@H](CC1CCCCC1)NC(=O)[C@H](CC1CCCCC1)NC(=O)[C@H](C)NC(=O)[C@H](CCCCN)NC(=O)[C@@H](N)Cc1ccccc1)C(=O)N[C@@H](CCCNC(=N)N)C(=O)O", "note": "[Example 195, H-Phenylalanyl-Lysyl-Alanyl-{(2S)-2-Amino-3-cyclohexylpropanoyl}-{(2S)-2-Amino-3-cyclohexylpropanoyl}-DLeucyl-Arginyl-OH] (H-FKA[Cha][Cha][dL]R-OH)", "pKi": 5.82}, {"smiles": "CCCC[C@@H](NC(=O)[C@H](CC(C)C)NC(=O)[C@H](CC1CCCCC1)NC(=O)[C@H](CC1CCCCC1)NC(=O)[C@H](C)NC(=O)[C@H](CCCCN)NC(=O)[C@@H](N)Cc1ccccc1)C(=O)O", "note": "[Example 390, H-Phenylalanyl-Lysyl-Alanyl-{(2S)-2-Amino-3-cyclohexylpropanoyl}-{(2S)-2-Amino-3-cyclohexylpropanoyl}-Leucyl-DNorleucyl-OH] (H-FKA[Cha][Cha]L[dNle]-OH)", "pKi": 5.40}, {"smiles": "CC(C)C[C@H](NC(=O)[C@H](CC1CCCCC1)NC(=O)[C@H](CC1CCCCC1)NC(=O)[C@H](C)NC(=O)[C@H](CCCCN)NC(=O)[C@@H](N)Cc1ccccc1)C(=O)N[C@H](CCCNC(=N)N)C(=O)O", "note": "[Example 214, H-Phenylalanyl-Lysyl-Alanyl-{(2S)-2-Amino-3-cyclohexylpropanoyl}-{(2S)-2-Amino-3-cyclohexylpropanoyl}-Leucyl-DArg] (H-FKA[Cha][Cha]L[dR]-OH)", "pKi": 7.05}, {"smiles": "CN[C@@H](Cc1ccccc1)C(=O)N[C@@H](CCCCN)C(=O)N1CCC[C@H]1C(=O)N[C@H](Cc1cccc2ccccc12)C(=O)N[C@@H](Cc1ccccc1)C(=O)N[C@H](CCCNC(=N)N)C(=O)O", "note": "[Example 224, (N-Methyl)Phenylalanyl-Lysyl-Prolyl-D(1-Naphthylalanyl)-Phenylalanyl-DArginyl-OH] (H-[NMeF]KP[d1Nal]F[dR]-OH)", "pKi": 7.92}, {"smiles": "CCCC[C@H](NC(=O)[C@H](Cc1ccccc1)NC)C(=O)N1CCC[C@H]1C(=O)N[C@H](CC1CCCCC1)C(=O)N[C@@H](CC1CCCCC1)C(=O)N[C@H](CCCNC(=N)N)C(=O)O", "note": "[Example 187, (N-Methyl)Phenylalanyl-Norleucyl-Prolyl-{(2R)-2-Amino-3-cyclohexylpropanoyl}-{(2S)-2-Amino-3-cyclohexylpropanoyl}-DArginyl-OH] (H-[NMeF][Nle]P[dCha][Cha][dR]-OH)", "pKi": 6.52}, {"smiles": "CN[C@@H](Cc1ccccc1)C(=O)N[C@@H](CCCCNC(=O)C(F)(F)F)C(=O)N1CCC[C@H]1C(=O)N[C@H](CC1CCCCC1)C(=O)N[C@@H](CC1CCCCC1)C(=O)N[C@H](CCCNC(=N)N)C(=O)O", "note": "[Example 305, (N-Methyl)Phenylalanyl-Lysyl(N-epsilon-trifluoroacetyl)-Prolyl-{(2R)-2-Amino-3-cyclohexylpropanoyl}-{(2S)-2-Amino-3-cyclohexylpropanoyl}-DArginyl-OH] (H-[NMeF]K(Tfa)P[dCha][Cha][dR]-OH)", "pKi": 6.66}, {"smiles": "CN[C@@H](Cc1ccccc1)C(=O)N[C@@H](CCCCN)C(=O)N[C@@H](CCC(=O)O)C(=O)N[C@H](CC1CCCCC1)C(=O)N[C@@H](Cc1ccccc1)C(=O)N[C@H](CCCNC(=N)N)C(=O)O", "note": "[Example 40, (N-Methyl)Phenylalanyl-Lysyl-Glutamyl-{(2R)-2-Amino-3-cyclohexylpropanoyl}-Phenylalanyl-DArginyl-OH] (H-[NMeF]KE[dCha]F[dR]-OH)", "pKi": 7.00}]}]}
